Here are results for four sequences from US20040208919A1, “Vaccination against prion diseases” (priority 2002, published 2004).

Where “and” joins values, the source holds several entries; their conditions need not be identical. Equal entries are not always repeated.

This experiment deals with primary rat hippocampal neurons. It is filed as cell-based.

For the sequence KTNMKHMAGAAAAGAVVGGLG [PrP 106-126], the “Neuronal death, mode and dose dependence” value is listed as “occurred by apoptosis in a dose dependent manner”; the “Neurotoxicity compared with the other synthetic PrP fragments” value is reported as “most neurotoxic fragment”.

As for “NGAKALMGGHGATKVMVGAAA [PrP 106-126 scrambled, reference compound]”, the Cell death % is 3 ± 2% and 8 ± 3%.

As to WGQGGGTHSQWNKPSKPK [PrP 89-106], the Cell death % was 5 ± 2% and 2 ± 6%.

For WGQPHGGG [PrP 57-64], the Cell death % was 0 ± 5% and 3 ± 4%.
